Test results taken from patent US10052330B2, “Substituted pyrido[3,4-b]pyrazines as Syk inhibitors” (HUTCHISON MEDIPHARMA LIMITED, priority 2011, dated 2018).

Tests used:
Syk kinase = Syk kinase (Homo sapiens, UniProt P43405); assay: Syk kinase enzymatic assay (Kit-Tyr 2 Peptide); format: biochemical; conditions: 8 concentrations, 1 μM down to 0.0003 μM; upper bound of each range is 'less than'; read-out: IC50: Enzymatic Activity (Syk kinase)
RBL-2H3 cells = assay: IgE-induced Beta-hexosaminidase secretion in RBL-2H3 cells; format: cell-based; conditions: Rattus norvegicus, RBL-2H3, RBL-2H3 cells sensitized with SPE-7, stimulated with DNP-BSA; upper bound of each range is 'less than'; read-out: IC50, IgE-induced Beta-hexosaminidase secretion

IC50 (Syk kinase) [nM] | SMILES | IC50 (RBL-2H3 cells) [nM]
100 to 1000 | Clc1cccc(-c2cc3nccnc3c(NCC3CCCNC3)n2)c1 (stereo not drawn) [Compound 24] | 100 to 1000
100 to 1000 | NC1CCN(c2nc(-c3ccc(N4CCOCC4)cc3)cc3nccnc23)C1 (stereo not drawn) [Compound 28] | 100 to 1000
1 to 100 | COc1ccc(-c2cc3nccnc3c(NC[C@H]3CCCNC3)n2)cc1OC [Compound 33] | 100 to 1000
100 to 1000 | c1cnc2c(N[C@@H]3CCNC3)nc(-c3ccc(N4CCOCC4)cc3)cc2n1 [Compound 39] | 100 to 1000
1 to 100 | CC(C)COc1ccc(-c2cc3nccnc3c(NCC3CCCNC3)n2)cc1 (stereo not drawn) [Compound 42] | 100 to 1000
100 to 1000 | CCc1ccc(-c2cc3nccnc3c(NCC3CCCNC3)n2)cc1 (stereo not drawn) [Compound 45] | 100 to 1000
1 to 100 | CC(C)c1ccc(-c2cc3nccnc3c(NCC3CCCNC3)n2)cc1 (stereo not drawn) [Compound 46] | 100 to 1000
1 to 100 | CC(C)(C)c1ccc(-c2cc3nccnc3c(NCC3CCCNC3)n2)cc1 (stereo not drawn) [Compound 47] | 100 to 1000
1 to 100 | CC(C)Oc1ccc(-c2cc3nccnc3c(NCC3CCCNC3)n2)cc1F (stereo not drawn) [Compound 52] | 100 to 1000
1 to 100 | FC(F)(F)c1ccc(-c2cc3nccnc3c(NCC3CCCNC3)n2)cc1 (stereo not drawn) [Compound 63] | 100 to 1000
1 to 100 | Oc1ccc(-c2cc3nccnc3c(NC[C@H]3CCCNC3)n2)cc1F [Compound 67] | 100 to 1000
1 to 100 | CCN(CC)c1ccc(-c2cc3nccnc3c(NCC3CCCNC3)n2)cc1 (stereo not drawn) [Compound 73] | 100 to 1000
100 to 1000 | Cc1ccc(-c2cc3nccnc3c(NC[C@@H]3CCCNC3)n2)cc1Cl [Compound 76] | 100 to 1000
1 to 100 | Clc1ccc(-c2cc3nccnc3c(NC[C@H]3CCCNC3)n2)cc1 [Compound 85] | 100 to 1000
1 to 100 | CC(C)Oc1ccc(-c2cc3nccnc3c(NC[C@H]3CCCNC3)n2)cc1F [Compound 86] | 100 to 1000
1 to 100 | c1cnc2c(NC[C@H]3CCCNC3)nc(-c3ccc(N4CCOCC4)nc3)cc2n1 [Compound 87] | 100 to 1000
100 to 1000 | c1cnc2c(NC[C@@H]3CCCNC3)nc(-c3ccc(N4CCOCC4)nc3)cc2n1 [Compound 89] | 100 to 1000
100 to 1000 | c1cnc2c(NC[C@H]3CNCCO3)nc(-c3ccc(N4CCOCC4)nc3)cc2n1 [Compound 97] | 100 to 1000
1 to 100 | CN(C)c1ccc(-c2cc3nccnc3c(N3CCC4(CCCNC4)C3)n2)cc1 (stereo not drawn) [Compound 111] | 1 to 100
1 to 100 | c1cnc2c(NC[C@@H]3CCCNC3)nc(-c3ccc(N4CCCC4)cc3)cc2n1 [Compound 119] | 100 to 1000
1 to 100 | Cc1cc(-c2cc3nccnc3c(NC[C@@H]3CCCNC3)n2)ccc1N1CCOCC1 [Compound 120] | 100 to 1000
1 to 100 | Fc1cc(-c2cc3nccnc3c(NC[C@@H]3CCCNC3)n2)ccc1N1CCOCC1 [Compound 121] | 100 to 1000
1 to 100 | CN1CCN(c2ccc(-c3cc4nccnc4c(N4CCC(C(N)=O)C4)n3)cc2)CC1 (stereo not drawn) [Compound 128] | 100 to 1000
1 to 100 | COc1ccc(-c2cc3nccnc3c(NC[C@@H]3CNCCO3)n2)cc1F [Compound 136] | 1 to 100
100 to 1000 | FC(F)Oc1ccc(-c2cc3nccnc3c(NC[C@@H]3CNCCO3)n2)cc1 [Compound 138] | 100 to 1000
1 to 100 | CN(C)c1ccc(-c2cc3nccnc3c(NC[C@@H]3CNCCO3)n2)cc1F [Compound 141] | 1 to 100
1 to 100 | CN(C)c1ccc(-c2cc3nccnc3c(NC[C@H]3CCCNC3)n2)cc1F [Compound 142] | 1 to 100
100 to 1000 | NC(=O)N[C@@H]1CCN(c2nc(-c3ccc(N4CCOCC4)cc3)cc3nccnc23)C1 [Compound 144] | 100 to 1000
100 to 1000 | CCNC[C@@H]1CCN(c2nc(-c3ccc(N4CCOCC4)cc3)cc3nccnc23)C1 [Compound 148] | 100 to 1000

The next lines start with the molecule.

SMILES | IC50 (Syk kinase) [nM] | IC50 (RBL-2H3 cells) [nM]
c1cnc2c(NCC3CCCNC3)nc(-c3cn[nH]c3)cc2n1 (stereo not drawn) [Compound 25] | 100 to 1000 | 100 to 1000
COc1ccc(-c2cc3nccnc3c(NCC3CCCNC3)n2)cc1OC (stereo not drawn) [Compound 26] | 1 to 100 | 100 to 1000
c1cnc2c(NCC3CCNCC3)nc(-c3ccc(N4CCOCC4)cc3)cc2n1 [Compound 37] | 100 to 1000 | 100 to 1000
Cc1ccc(-c2cc3nccnc3c(NC[C@H]3CCCNC3)n2)cc1 [Compound 40] | 1 to 100 | 100 to 1000
Cc1ccc(-c2cc3nccnc3c(NC[C@H]3CCCNC3)n2)cc1F [Compound 41] | 1 to 100 | 100 to 1000
FC(F)(F)Oc1ccc(-c2cc3nccnc3c(NCC3CCCNC3)n2)cc1 (stereo not drawn) [Compound 54] | 1 to 100 | 100 to 1000
Clc1ccc(-c2cc3nccnc3c(NCC3CCCNC3)n2)cc1 (stereo not drawn) [Compound 55] | 1 to 100 | 100 to 1000
CNc1ccc(-c2cc3nccnc3c(NCC3CCCNC3)n2)cn1 (stereo not drawn) [Compound 60] | 1 to 100 | 100 to 1000
COc1ccc(-c2cc3nccnc3c(NC[C@H]3CCCNC3)n2)c(F)c1 [Compound 68] | 100 to 1000 | 100 to 1000
Cc1ccc(-c2cc3nccnc3c(NC[C@H]3CCCNC3)n2)cn1 [Compound 69] | 100 to 1000 | 100 to 1000
Nc1ccc(-c2cc3nccnc3c(NCC3CCCNC3)n2)cc1 (stereo not drawn) [Compound 74] | 1 to 100 | 100 to 1000
Nc1ccc(-c2cc3nccnc3c(NC[C@@H]3CCCNC3)n2)cc1Cl [Compound 75] | 100 to 1000 | 100 to 1000
COCCOc1ccc(-c2cc3nccnc3c(NCC3CCCNC3)n2)cc1 (stereo not drawn) [Compound 78] | 1 to 100 | 100 to 1000
CC(C)(C)c1ccc(-c2cc3nccnc3c(NC[C@H]3CCCNC3)n2)cc1 [Compound 79] | 1 to 100 | 100 to 1000
Cc1ccc(-c2cc3nccnc3c(NC[C@H]3CCCNC3)n2)cc1Cl [Compound 80] | 1 to 100 | 100 to 1000
CC(C)(C)c1ccc(-c2cc3nccnc3c(NC[C@@H]3CCCNC3)n2)cc1 [Compound 83] | 1 to 100 | 100 to 1000
CNc1ccc(-c2cc3nccnc3c(NC[C@@H]3CCCNC3)n2)cc1 [Compound 84] | 100 to 1000 | 100 to 1000
CC(C)Oc1ccc(-c2cc3nccnc3c(NC[C@@H]3CCCNC3)n2)cc1F [Compound 88] | 100 to 1000 | 100 to 1000
CN(C)c1ccc(-c2cc3nccnc3c(NC[C@H]3CNCCO3)n2)cc1 [Compound 92] | 100 to 1000 | 100 to 1000
COc1ccc(-c2cc3nccnc3c(NC[C@H]3CNCCO3)n2)cc1F [Compound 95] | 100 to 1000 | 100 to 1000

SMILES | IC50 (Syk kinase) [nM] | IC50 (RBL-2H3 cells) [nM]
CC(C)Oc1ccc(-c2cc3nccnc3c(NC[C@@H]3CNCCO3)n2)cc1F [Compound 100] | 100 to 1000 | 100 to 1000
CN(C)c1ccc(-c2cc3nccnc3c(NC[C@@H]3CNCCO3)n2)cn1 [Compound 102] | 1 to 100 | 1 to 100
c1cnc2c(NC[C@@H]3CNCCO3)nc(-c3ccc(N4CCCC4)nc3)cc2n1 [Compound 103] | 1 to 100 | 100 to 1000
CN(C)c1ccc(-c2cc3nccnc3c(NC[C@H]3CNCCO3)n2)cn1 [Compound 106] | 100 to 1000 | 100 to 1000
NCC1CCN(c2nc(-c3ccc(N4CCOCC4)cc3)cc3nccnc23)CC1 [Compound 108] | 100 to 1000 | 100 to 1000
Fc1cc(-c2cc3nccnc3c(N3CCC4(CCCNC4)C3)n2)ccc1N1CCOCC1 (stereo not drawn) [Compound 109] | 1 to 100 | 1 to 100
Cc1cc(-c2cc3nccnc3c(N3CCC4(CCCNC4)C3)n2)ccc1N1CCOCC1 (stereo not drawn) [Compound 110] | 1 to 100 | 1 to 100
c1cnc2c(N3CCC4(CCCNC4)C3)nc(-c3ccc(N4CCCC4)cc3)cc2n1 (stereo not drawn) [Compound 112] | 1 to 100 | 100 to 1000
c1cnc2c(NC[C@@H]3CNCCO3)nc(-c3ccc(N4CCCC4)cc3)cc2n1 [Compound 114] | 1 to 100 | 1 to 100
Cc1cc(-c2cc3nccnc3c(NC[C@H]3CNCCO3)n2)ccc1N1CCOCC1 [Compound 115] | 100 to 1000 | 1 to 100
CN1CCN(c2ccc(-c3cc4nccnc4c(NC[C@@H]4CCCNC4)n3)cc2)CC1 [Compound 122] | 1 to 100 | 100 to 1000
CN1CCN(c2ccc(-c3cc4nccnc4c(NC[C@@H]4CNCCO4)n3)cc2)CC1 [Compound 123] | 1 to 100 | 1 to 100
O=C1CCCN1c1ccc(-c2cc3nccnc3c(NC[C@@H]3CNCCO3)n2)cc1 [Compound 124] | 100 to 1000 | 100 to 1000
CN1CCN(c2ccc(-c3cc4nccnc4c(N4CC[C@@H](CO)C4)n3)cc2)CC1 [Compound 127] | 1 to 100 | 100 to 1000
Fc1cc(-c2cc3nccnc3c(NC[C@H]3CCCNC3)n2)ccc1N1CCOCC1 [Compound 129] | 1 to 100 | 1 to 100
c1cnc2c(N3CCC4(CCCNC4)C3)nc(-c3ccc(N4CCOCC4)nc3)cc2n1 (stereo not drawn) [Compound 130] | 1 to 100 | 1 to 100
Fc1cc(-c2cc3nccnc3c(NC[C@@H]3CNCCO3)n2)cc(F)c1N1CCOCC1 [Compound 135] | 100 to 1000 | 100 to 1000
FC(F)Oc1ccc(-c2cc3nccnc3c(NC[C@H]3CCCNC3)n2)cc1 [Compound 139] | 1 to 100 | 1 to 100
CNc1ccc(-c2cc3nccnc3c(NC[C@@H]3CNCCO3)n2)cc1 [Compound 143] | 1 to 100 | 1 to 100
CS(=O)(=O)NC[C@@H]1CCN(c2nc(-c3ccc(N4CCOCC4)cc3)cc3nccnc23)C1 [Compound 149, (R)—N-((1-(7-(4-morpholinophenyl)pyrido[4,3-b]pyrazin-5-yl)pyrrolidin-3-yl)methyl)methanesulfonamide] | 100 to 1000 | 100 to 1000
